Like-named read-outs stand apart in the source and are kept apart here.
Assays:
MATE1 = target: T1, MATE1 (Homo sapiens, UniProt Q96FL8); conditions: pH 8.5
T1 sequence (Q96FL8 1-570): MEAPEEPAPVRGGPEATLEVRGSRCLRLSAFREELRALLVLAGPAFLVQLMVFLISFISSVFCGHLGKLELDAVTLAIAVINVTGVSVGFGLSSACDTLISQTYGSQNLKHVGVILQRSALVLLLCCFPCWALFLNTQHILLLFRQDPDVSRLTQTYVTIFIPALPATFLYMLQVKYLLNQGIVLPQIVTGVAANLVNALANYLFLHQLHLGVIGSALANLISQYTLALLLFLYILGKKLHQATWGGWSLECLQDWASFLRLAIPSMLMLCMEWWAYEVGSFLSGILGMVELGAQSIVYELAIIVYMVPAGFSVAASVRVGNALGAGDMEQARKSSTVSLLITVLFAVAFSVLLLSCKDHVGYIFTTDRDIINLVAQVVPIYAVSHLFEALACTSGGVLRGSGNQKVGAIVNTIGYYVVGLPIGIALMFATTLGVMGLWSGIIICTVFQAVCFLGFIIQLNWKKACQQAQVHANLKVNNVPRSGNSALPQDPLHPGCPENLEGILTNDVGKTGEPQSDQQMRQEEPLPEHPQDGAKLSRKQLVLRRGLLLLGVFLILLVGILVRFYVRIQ
Description: (§1) [^14C]-Metformin (1 mM) was provided as a solid and was prepared in Hank's balanced salt solution (HBSS).
(§2) Cells were plated onto standard 24-well tissue culture plates in cell culture medium 1 to 3 days before the experiment. MATE1 and MATE2-K and control cells were incubated with butyric acid (10 mM) for 24 hours before the experiment to inhibit suppression of the transporter.

MATE2-K = MATE2-K (Homo sapiens, UniProt Q86VL8); conditions: pH 8.5
Description: as §1, §2

BCRP = BCRP inhibition: bidirectional transport of prazosin across MDCKII BCRP and control cells; conditions: for % control: corrected efflux ratio, prazosin 1 μM
Excerpt: MDCKII P-gp, MDCKII BCRP and control MDCKII cells were purchased from the Netherlands Cancer Institute.

OCT1 = target: T2, OCT1 (Homo sapiens, UniProt O15245); conditions: for Uptake (Average ± SD), Control / Uptake (Average ± SD), OCT1 / Background corrected uptake rate: human, pH 7.4
T2 sequence (O15245 1-554): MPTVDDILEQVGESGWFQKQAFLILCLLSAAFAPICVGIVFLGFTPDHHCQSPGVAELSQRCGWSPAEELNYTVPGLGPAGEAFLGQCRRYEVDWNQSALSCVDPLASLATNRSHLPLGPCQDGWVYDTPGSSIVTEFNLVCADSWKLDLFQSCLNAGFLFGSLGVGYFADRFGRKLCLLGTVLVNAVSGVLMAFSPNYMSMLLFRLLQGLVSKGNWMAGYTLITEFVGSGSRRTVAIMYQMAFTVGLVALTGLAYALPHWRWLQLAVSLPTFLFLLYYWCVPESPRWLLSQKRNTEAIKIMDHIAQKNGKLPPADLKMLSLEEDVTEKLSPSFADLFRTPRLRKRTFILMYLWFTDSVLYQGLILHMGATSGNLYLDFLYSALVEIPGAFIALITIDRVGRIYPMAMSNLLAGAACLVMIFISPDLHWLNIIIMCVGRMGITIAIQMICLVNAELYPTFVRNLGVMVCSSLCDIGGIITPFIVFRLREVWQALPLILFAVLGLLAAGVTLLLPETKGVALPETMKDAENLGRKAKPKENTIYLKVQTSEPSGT
Description: as §1, §2

P-gp [1] = target: T3, P-gp (Homo sapiens, UniProt P08183)
[2] = cited from earlier work
[3] = cited from earlier work; remark: listed apart in the source
P-gp [4] = target: T3, P-gp; assay: P-gp inhibition: bidirectional transport of digoxin across Caco-2 cells

T3 sequence (P08183 whole entry): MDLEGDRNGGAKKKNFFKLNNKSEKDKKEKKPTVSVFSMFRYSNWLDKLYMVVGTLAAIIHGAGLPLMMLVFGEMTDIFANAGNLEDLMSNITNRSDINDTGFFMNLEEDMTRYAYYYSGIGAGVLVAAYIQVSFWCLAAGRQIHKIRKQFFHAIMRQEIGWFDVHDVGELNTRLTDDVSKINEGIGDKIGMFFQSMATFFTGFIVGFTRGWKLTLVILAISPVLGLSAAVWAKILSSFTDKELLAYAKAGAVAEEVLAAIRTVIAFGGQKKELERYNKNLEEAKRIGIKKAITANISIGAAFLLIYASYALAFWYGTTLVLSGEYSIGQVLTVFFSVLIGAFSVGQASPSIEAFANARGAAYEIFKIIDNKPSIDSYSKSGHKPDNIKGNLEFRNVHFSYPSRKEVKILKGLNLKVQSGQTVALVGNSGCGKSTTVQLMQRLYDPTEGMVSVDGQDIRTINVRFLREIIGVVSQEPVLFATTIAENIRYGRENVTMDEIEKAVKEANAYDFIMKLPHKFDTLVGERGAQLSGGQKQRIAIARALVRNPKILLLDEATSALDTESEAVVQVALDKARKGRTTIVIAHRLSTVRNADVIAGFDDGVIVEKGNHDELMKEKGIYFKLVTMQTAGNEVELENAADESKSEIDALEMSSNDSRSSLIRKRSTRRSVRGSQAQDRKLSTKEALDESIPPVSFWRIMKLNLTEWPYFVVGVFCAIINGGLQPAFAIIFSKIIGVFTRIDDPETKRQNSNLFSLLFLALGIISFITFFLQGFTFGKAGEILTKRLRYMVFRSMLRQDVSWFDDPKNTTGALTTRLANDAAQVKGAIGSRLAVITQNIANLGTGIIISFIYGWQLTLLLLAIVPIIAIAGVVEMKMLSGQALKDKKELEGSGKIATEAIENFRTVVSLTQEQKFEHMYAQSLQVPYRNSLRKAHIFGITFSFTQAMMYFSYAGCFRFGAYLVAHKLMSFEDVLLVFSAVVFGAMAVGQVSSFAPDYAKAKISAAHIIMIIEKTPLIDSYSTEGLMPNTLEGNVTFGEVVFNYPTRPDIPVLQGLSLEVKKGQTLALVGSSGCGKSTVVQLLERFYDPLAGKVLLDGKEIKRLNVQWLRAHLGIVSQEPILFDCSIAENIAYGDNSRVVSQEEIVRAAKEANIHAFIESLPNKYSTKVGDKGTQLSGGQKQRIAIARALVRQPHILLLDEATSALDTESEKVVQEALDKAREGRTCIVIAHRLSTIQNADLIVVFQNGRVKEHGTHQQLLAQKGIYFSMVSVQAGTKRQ
Sequence of MATE2-K (Q86VL8 1-566 isoform Q86VL8-3): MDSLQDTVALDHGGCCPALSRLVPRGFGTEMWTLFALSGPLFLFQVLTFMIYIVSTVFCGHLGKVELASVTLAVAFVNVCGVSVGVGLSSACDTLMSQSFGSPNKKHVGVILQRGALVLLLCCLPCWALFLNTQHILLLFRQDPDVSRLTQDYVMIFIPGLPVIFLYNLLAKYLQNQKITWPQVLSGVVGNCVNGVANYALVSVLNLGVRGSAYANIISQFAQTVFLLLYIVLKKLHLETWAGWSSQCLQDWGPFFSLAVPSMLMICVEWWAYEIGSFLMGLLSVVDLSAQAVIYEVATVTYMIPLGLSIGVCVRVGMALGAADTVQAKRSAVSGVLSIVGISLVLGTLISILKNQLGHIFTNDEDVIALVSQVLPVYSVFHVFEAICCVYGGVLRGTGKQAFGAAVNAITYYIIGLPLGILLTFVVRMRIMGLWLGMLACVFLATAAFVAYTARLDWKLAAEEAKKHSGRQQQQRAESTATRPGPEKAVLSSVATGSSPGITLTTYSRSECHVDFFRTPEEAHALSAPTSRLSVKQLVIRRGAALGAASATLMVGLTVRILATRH

Compound: CN/C(=N/CCSCc1nc[nH]c1C)NC#N [Cimetidine]
- Uptake (Average ± SD), Control (MATE1; 10 μM): 5.20 ± 0.63 pmol/mg protein
- Uptake (Average ± SD), MATE1 (MATE1; 10 μM): 85.2 ± 7.8 pmol/mg protein
- Uptake (Average ± SD), Control (MATE2-K; 300 μM): 7.34 ± 0.20 pmol/mg protein
- Uptake (Average ± SD), MATE2-K (MATE2-K; 300 μM): 32.3 ± 11.7 pmol/mg protein

Compound: NS(=O)(=O)c1cc(Cl)c(Cl)c(S(N)(=O)=O)c1 [Dichlorphenamide, 4,5-dichloro-1,3-benzenedisulfonamide]
- % control (BCRP; inhibitor 1000 μM): 60.0%
- Control cells Recovery (%) A:B (BCRP; dog, MDCK, 120 min, 1000 μM): 84.7%
- Control cells Recovery (%) B:A (BCRP; dog, MDCK, 120 min, 1000 μM): 77.0%
- MDCKII-BCRP cells Recovery (%) A:B (BCRP; human, 120 min, 1000 μM): 93.0%
- MDCKII-BCRP cells Recovery (%) B:A (BCRP; human, 120 min, 1000 μM): 83.7%
- Uptake (Average ± SD), Control (MATE1; 1 μM): 6.66 ± 1.31 pmol/mg protein
- Uptake (Average ± SD), MATE1 (MATE1; 1 μM): 436 ± 23 pmol/mg protein
- Uptake (Average ± SD), Control (MATE1; 3 μM): 6.75 ± 1.65 pmol/mg protein
- Uptake (Average ± SD), MATE1 (MATE1; 3 μM): 401 ± 7 pmol/mg protein
- Uptake (Average ± SD), Control (MATE1; 10 μM): 7.43 ± 1.34 pmol/mg protein
- Uptake (Average ± SD), MATE1 (MATE1; 10 μM): 406 ± 12 pmol/mg protein
- Uptake (Average ± SD), Control (MATE1; 30 μM): 6.79 ± 0.89 pmol/mg protein
- Uptake (Average ± SD), MATE1 (MATE1; 30 μM): 432 ± 10 pmol/mg protein
- Uptake (Average ± SD), Control (MATE1; 100 μM): 7.52 ± 0.96 pmol/mg protein
- Uptake (Average ± SD), MATE1 (MATE1; 100 μM): 421 ± 17 pmol/mg protein
- Uptake (Average ± SD), Control (MATE1; 300 μM): 5.56 ± 0.16 pmol/mg protein
- Uptake (Average ± SD), MATE1 (MATE1; 300 μM): 398 ± 17 pmol/mg protein
- Uptake (Average ± SD), Control (MATE1; 1000 μM): 5.52 ± 0.21 pmol/mg protein
- Uptake (Average ± SD), MATE1 (MATE1; 1000 μM): 379 ± 13 pmol/mg protein
- Uptake (Average ± SD), Control (MATE2-K; 1 μM): 9.21 ± 0.93 pmol/mg protein
- Uptake (Average ± SD), MATE2-K (MATE2-K; 1 μM): 149 ± 29 pmol/mg protein
- Uptake (Average ± SD), Control (MATE2-K; 3 μM): 9.44 ± 2.27 pmol/mg protein
- Uptake (Average ± SD), MATE2-K (MATE2-K; 3 μM): 159 ± 19 pmol/mg protein
- Uptake (Average ± SD), Control (MATE2-K; 10 μM): 8.28 ± 1.46 pmol/mg protein
- Uptake (Average ± SD), MATE2-K (MATE2-K; 10 μM): 113 ± 8 pmol/mg protein
- Uptake (Average ± SD), Control (MATE2-K; 30 μM): 8.51 ± 1.05 pmol/mg protein
- Uptake (Average ± SD), MATE2-K (MATE2-K; 30 μM): 124 ± 36 pmol/mg protein
- Uptake (Average ± SD), Control (MATE2-K; 100 μM): 9.21 ± 1.52 pmol/mg protein
- Uptake (Average ± SD), MATE2-K (MATE2-K; 100 μM): 137 ± 15 pmol/mg protein
- Uptake (Average ± SD), Control (MATE2-K; 300 μM): 8.86 ± 0.93 pmol/mg protein
- Uptake (Average ± SD), MATE2-K (MATE2-K; 300 μM): 166 ± 16 pmol/mg protein
- Uptake (Average ± SD), Control (MATE2-K; 1000 μM): 5.13 ± 0.40 pmol/mg protein
- Uptake (Average ± SD), MATE2-K (MATE2-K; 1000 μM): 106 ± 29 pmol/mg protein
- % control (OCT1; [14C]-tetraethylammonium bromide 5 μM, inhibitor 10 μM): 90.6%
- Uptake (Average ± SD), Control (OCT1; 1 μM): 4.28 ± 1.48 pmol/mg protein
- Uptake (Average ± SD), OCT1 (OCT1; 1 μM): 121 ± 11 pmol/mg protein
- Uptake (Average ± SD), Control (OCT1; 3 μM): 4.44 ± 1.97 pmol/mg protein
- Uptake (Average ± SD), OCT1 (OCT1; 3 μM): 125 ± 5 pmol/mg protein
- Uptake (Average ± SD), Control (OCT1; 10 μM): 4.28 ± 0.92 pmol/mg protein
- Uptake (Average ± SD), OCT1 (OCT1; 10 μM): 111 ± 4 pmol/mg protein
- Uptake (Average ± SD), Control (OCT1; 30 μM): 3.88 ± 0.48 pmol/mg protein
- Uptake (Average ± SD), OCT1 (OCT1; 30 μM): 122 ± 14 pmol/mg protein
- Uptake (Average ± SD), Control (OCT1; 100 μM): 4.12 ± 0.73 pmol/mg protein
- Uptake (Average ± SD), OCT1 (OCT1; 100 μM): 128 ± 6 pmol/mg protein
- Background corrected uptake rate (OCT1; 300 μM): 8.40 pmol/mg/min
- Uptake (Average ± SD), Control (OCT1; 300 μM): 3.88 ± 1.11 pmol/mg protein
- Uptake (Average ± SD), OCT1 (OCT1; 300 μM): 130 ± 10 pmol/mg protein
- Background corrected uptake rate (OCT1; 1000 μM): 5.00 pmol/mg/min
- Uptake (Average ± SD), Control (OCT1; 1000 μM): 2.99 ± 1.46 pmol/mg protein
- Uptake (Average ± SD), OCT1 (OCT1; 1000 μM): 77.9 ± 3.0 pmol/mg protein
- Papp A:B of digoxin (Average) (P-gp [1]; Caco-2): 0.337 (n = 2) × 10^−6 cm/sec
- % control (P-gp [1]; human, 120 min, 3 μM): 74.0%
- Solubility in dilute solutions of sodium carbonate and sodium hydroxide [2]: soluble
- Storage stability [3]: at least 36 months

Compound: Cc1cccc(C)c1OCC(=O)N[C@@H](Cc1ccccc1)[C@@H](O)C[C@H](Cc1ccccc1)NC(=O)[C@H](C(C)C)N1CCCNC1=O [Lopinavir]
- % control (BCRP; inhibitor 30 μM): 0%

Compound: CCc1nc(N)nc(N)c1-c1ccc(Cl)cc1 [Pyrimethamine]
- Background corrected uptake rate (MATE1; 0.1 μM): 11.7 pmol/mg/min
- Uptake (Average ± SD), Control (MATE1; 0.1 μM): 4.24 ± 0.72 pmol/mg protein
- Uptake (Average ± SD), MATE1 (MATE1; 0.1 μM): 62.8 ± 4.0 pmol/mg protein
- Background corrected uptake rate (MATE2-K; 0.3 μM): 14.0 pmol/mg/min
- Uptake (Average ± SD), Control (MATE2-K; 0.3 μM): 5.59 ± 0.88 pmol/mg protein
- Uptake (Average ± SD), MATE2-K (MATE2-K; 0.3 μM): 75.6 ± 16.7 pmol/mg protein

Compound: C=C[C@H]1C[N@@]2CC[C@H]1C[C@@H]2[C@@H](O)c1ccnc2ccc(OC)cc12 [Quinidine]
- Background corrected uptake rate (OCT1; 100 μM): 1.64 pmol/mg/min

Compound: C/C=C/C[C@@H](C)C(=O)[C@H]1C(=O)N[C@@H](C(C)C)C(=O)N(C)CC(=O)N(C)[C@@H](CC(C)C)C(=O)N[C@@H](C(C)C)C(=O)N(C)[C@@H](CC(C)C)C(=O)N[C@@H](C)C(=O)N[C@H](C)C(=O)N(C)[C@@H](CC(C)C)C(=O)N(C)[C@@H](CC(C)C)C(=O)N(C)[C@@H](C(C)C)C(=O)N1C [Valspodar]
- Papp A:B of digoxin (Average ± SD) (P-gp [4]): 9.12 ± 1.34 × 10^−6 cm/sec
- Papp B:A of digoxin (Average ± SD) (P-gp [4]): 10.0 ± 2.5 × 10^−6 cm/sec

— patent US20210220300A1 (Strongbridge Dublin Limited, priority 2019, published 2021)
